In brackets after ≈: the same amount, converted by molar mass. Several values for one entry are separate records, joined by “and”; a condition that tells them apart may be missing. Equal values may be shown once.
Legend:
[1] = test system: Candida tropicalis A25812; assay: In vitro antifungal activity, serial agar dilution method (Table 1a); type: cell-based; conditions: A25812, YM agar (pH 7.0, Difco), 30°C for 2 days (yeast) or 4 days (filamentous fungi), read-out: MICs, Candida tropicalis A25812
Experimental: (§1) The inoculum size was adjusted to 10⁶ cells/ml, and a volume of approximately 0.003 ml of fungal suspension was applied to the surface of the antibiotic containing agar plates with a multiinoculator. After incubation, the lowest concentration of antibiotic causing virtually complete inhibition of fungal growth was determined as the minimum inhibitory concentration (MIC).

[2] = test system: Saccharomyces cerevisiae A25803; assay: as above; type: cell-based; conditions: YM agar (pH 7.0, Difco), 30°C for 2 days (yeast) or 4 days (filamentous fungi), read-out: MICs, Saccharomyces cerevisiae A25803
Experimental: as §1

[3] = test system: Candida pseudotropicalis A25802; assay: as above; type: cell-based; conditions: Kluyveromyces marxianus, YM agar (pH 7.0, Difco), 30°C for 2 days (yeast) or 4 days (filamentous fungi), read-out: MICs, Candida pseudotropicalis A25802
Experimental: as §1

[4] = test system: Trichophyton rubrum A26761; assay: as above; type: cell-based; conditions: A26761, YM agar (pH 7.0, Difco), 30°C for 2 days (yeast) or 4 days (filamentous fungi), read-out: MICs, Trichophyton rubrum A26761
Experimental: as §1

[5] = test system: Microsporum canis WW10218; assay: as above; type: cell-based; conditions: WW10218, YM agar (pH 7.0, Difco), 30°C for 2 days (yeast) or 4 days (filamentous fungi), read-out: MICs, Microsporum canis WW10218
Experimental: as §1

[6] = test system: Cryptococcus neoformans A15053; assay: as above; type: cell-based; conditions: A15053, YM agar (pH 7.0, Difco), 30°C for 2 days (yeast) or 4 days (filamentous fungi), read-out: MICs, Cryptococcus neoformans A15053
Experimental: as §1

[7] = test system: Trichophyton mentagrophytes A26771; assay: as above; type: cell-based; conditions: A26771, YM agar (pH 7.0, Difco), 30°C for 2 days (yeast) or 4 days (filamentous fungi), read-out: MICs, Trichophyton mentagrophytes A26771
Experimental: as §1

[8] = test system: Candida paratropicalis A25825; assay: as above; type: cell-based; conditions: YM agar (pH 7.0, Difco); 30°C for 2 days (yeast) or 4 days (filamentous fungi); read-out: MICs, Candida paratropicalis A25825
Experimental: as §1

[9] = test system: Candida tropicalis A25809; assay: as above; type: cell-based; conditions: YM agar (pH 7.0, Difco), 30°C for 2 days (yeast) or 4 days (filamentous fungi), read-out: MICs, Candida tropicalis A25809
Experimental: as §1

[10] = test system: Candida albicans A9540; assay: as above; type: cell-based; conditions: A9540, YM agar (pH 7.0, Difco), 30°C for 2 days (yeast) or 4 days (filamentous fungi), read-out: MICs, Candida albicans A9540
Experimental: as §1

[11] = test system: Microsporum gypseum WW1107; assay: as above; type: cell-based; conditions: Nannizzia gypsea, YM agar (pH 7.0, Difco), 30°C for 2 days (yeast) or 4 days (filamentous fungi), read-out: MICs, Microsporum gypseum WW1107
Experimental: as §1

[12] = test system: Candida albicans A25578; assay: as above; type: cell-based; conditions: A25578, YM agar (pH 7.0, Difco), 30°C for 2 days (yeast) or 4 days (filamentous fungi), read-out: MICs, Candida albicans A25578
Experimental: as §1

[13] = test system: Candida albicans A9540; assay: Intravenous Candida albicans infection mouse model, Table 2 part B; type: in vivo, mice; conditions: at 1 and 3.5 hrs after infection and twice on the following day, 21 days after fungal challenge, method of Spearman-Karber, male ICR mice
Experimental: Several compounds were also evaluated in an intravenous Candida albicans […] infection mouse model. The test organism was suspended in saline approximately 10 times the median lethal dose of the fungus (10⁶ cells/mouse) were used to infect intravenously male ICR mice weighing 20 to 24 g. Groups of five mice at each dose level were given the test compounds intravenously or intramuscularly. The 50% protective dose (PD₅₀) was calculated from survival rates recorded 20 or 21 days after the fungal challenge. […]

[14] = test system: Candida albicans A9540; assay: Intravenous Candida albicans infection mouse model, Table 2 part A; type: in vivo; conditions: drug administered once just after infection, 20 days after fungal challenge, method of Litchfield and Wilcoxon, male ICR mice
Experimental: Several compounds were also evaluated in an intravenous Candida albicans […] infection mouse model. The test organism was suspended in saline approximately 10 times the median lethal dose of the fungus (10⁶ cells/mouse) were used to infect intravenously male ICR mice weighing 20 to 24 g. Groups of five mice at each dose level were given the test compounds intravenously or intramuscularly. The 50% protective dose (PD₅₀) was calculated from survival rates recorded 20 or 21 days after the fungal challenge. Control animals died between 7 to 15 days.

[15] = physchem
Experimental: The sample (3 ∼ 3.5 mg) was suspended in 1 ml of PBS(-) or PBS(+), sonicated at 30°C for 10 minutes, and allowed to stand at room temperature for 2 hours. The resulting solution or suspension was centrifuged at 12,000 rpm for 10 minutes. The supernatant (pH 6.7 ∼ 7.2) was diluted (5 x or 50 x) with 0.01N NaOH (pH ca. 11.5) and its UV absorption at 500 nm was measured. The solubility was assessed by the absorption coefficient value with reference to the standard. […] The zwitterionic form sample was used for the solubility test as it is. The hydrochloride salt sample (3 mg) was dissolved in 3 ml of distilled water and neutralized with 0.01N NaOH, and then the solution was lyophilized to give a test sample.
Dulbecco's phosphate buffered saline (PBS) solution was used. Preparation of PBS(-) solution: One PBS(-) tablet (Flow Laboratories, Cat. No. 28-103-05) was dissolved in 100 ml distilled water, and the solution was autoclaved for 10 minutes at 115°C. This solution contains 0.2 g/L of KCl, 0.2 g/L of KH₂PO₄, 8 g/L of NaCl, and 1.15 g/L of Na₂HPO₄. Preparation of PBS(+) solution: One PBS(-) tablet was dissolved in 80 ml distilled water; 10 mg of CaCl₂ was dissolved in 10 ml distilled water; 10 mg of MgCl₂, 6H₂O was dissolved in 10 ml distilled water. These solutions were separately autoclaved, as described above, and mixed when cooled.

[16] = Water solubility, protocol I (PBS, HPLC); type: physicochemical; conditions: Method I: PBS without CaCl₂ and MgCl₂.6H₂O
Experimental: The supernatant (2 µL) was analyzed by HPLC using the conditions specified for each compound in the Experimental Section. […] When not soluble, an additional amount of PBS (x µL) was added, sonicated, and centrifuged. When visibly soluble, the solution (2 µL) was injected to HPLC and the peak area was used for the known concentration of the sample.

[17] = test system: FA21436; assay: In vitro antifungal activity, serial agar dilution method (Table 1); type: cell-based, Asoergukkys flavus; conditions: Sabouraud dextrose agar (pH 7.0); 28°C for 40 hours; read-out: MIC, Asoergukkys flavus FA21436
Experimental: as §1, with “(MIC). Table 1. [table]” for “(MIC).”

[18] = test system: Cryptococcus neoformans D49; assay: as above; type: cell-based; conditions: Cryptococcus neoformans, D49; Sabouraud dextrose agar (pH 7.0); 28°C for 40 hours; read-out: MIC, Cryptococcus neoformans D49
Experimental: as §1, with “(MIC). Table 1. [table]” for “(MIC).”

[19] = test system: Petriellidium boydii IFO8078; assay: as above; type: cell-based; conditions: Scedosporium boydii, IFO8078; Sabouraud dextrose agar (pH 7.0); 28°C for 40 hours
Experimental: as §1, with “(MIC). Table 1. [table]” for “(MIC).”

[20] = test system: Aspergillus fumigatus IAM2034; assay: as above; type: cell-based; conditions: Aspergillus fumigatus, IAM2034; Sabouraud dextrose agar (pH 7.0); 28°C for 40 hours
Experimental: as §1, with “(MIC). Table 1. [table]” for “(MIC).”

In the case of CN[C@@H]1[C@H](O[C@@H]2OC[C@@H](O)[C@H](O)[C@H]2O)[C@@H](O)[C@H](O[C@H]2c3cc(C)c(C(=O)N[C@H](C)C(=O)O)c(O)c3-c3c(cc4c(c3O)C(=O)c3cc(OC)cc(O)c3C4=O)[C@@H]2O)O[C@@H]1C [Pradimicin A, reference compound], the MIC [1] was over 50 µg/mL, the MIC [2] was 0.8 µg/mL (≈ 0.951 µM) and the MIC [3] was 3.2 µg/mL (≈ 3.81 µM). For the same compound, the MIC [4] was 6.3 µg/mL (≈ 7.49 µM), the MIC [5] was 1.6 µg/mL (≈ 1.9 µM) and the MIC [6] was 0.4 µg/mL (≈ 0.476 µM). The MIC [7] was 6.3 µg/mL (≈ 7.49 µM), the MIC [8] was over 50 µg/mL and the MIC [9] was 1.6 µg/mL (≈ 1.9 µM). For the same compound, the MIC [10] was over 50 µg/mL, the MIC [11] was 12.5 µg/mL (≈ 14.9 µM) and the MIC [12] was 3.2 µg/mL (≈ 3.81 µM). The PD₅₀ ([13]; Part B: route IM) was 8.2 mg/kg, the PD₅₀ ([13]; Part B: route IV) was 30 mg/kg and the PD₅₀ [14] was 11 mg/kg and 7.9 mg/kg. The solubility at 2 h ([15]; Method II (+): PBS(+)) was 81 µg/mL (≈ 96.3 µM), the solubility at 2 h ([15]; Method II (-): PBS(-)) was 17 µg/mL (≈ 20.2 µM) and the solubility [16] was 17 µg/mL (≈ 20.2 µM). For the same compound, the MIC [17] was 6.3 µg/mL (≈ 7.49 µM), the MIC [18] was 0.8 µg/mL (≈ 0.951 µM) and the MIC [19] was 12.5 µg/mL (≈ 14.9 µM). The MIC [20] was 3.1 µg/mL (≈ 3.69 µM).

Reference: patent EP0428132A1, “Pradimicin derivatives” (Bristol-Myers Squibb Company, priority 1989, dated 1991)
